ChEMBL document CHEMBL5724558, “Image-based profiling of drug vulnerabilities in CRC organoids” (2024)
Where “and” joins values, the source holds several entries; their conditions need not be identical. Identical values can stand only once.

How the values were obtained:
Format in all cases: functional, Homo sapiens
Design in all cases: dose or concentration left out as unconfirmed
Colon cancer organoid [1] = test: (§1) Image-based profiling of donated chemical probes and chemogenomic kinase set in O06 CRC organoid. Image analysis is performed on the sum area metric, and the data were normalized to the DMSO control. After imaging the organoid viability is measured using the OneGloEX Luciferase Assay System. The normalized viability data and sum area are reported.
Colon cancer organoid [2] = test: as §1, with “O09” for “O06”
Colon cancer organoid [3] = test: as §1, with “O21” for “O06”

Row | Structure (SMILES) | Cell Viability (Colon cancer organoid [1]; Replication number 1) | Cell Viability (Colon cancer organoid [1]; Replication number 2) | Cell Viability (Colon cancer organoid [2]; Replication number 1) | Cell Viability (Colon cancer organoid [2]; Replication number 2) | Cell Viability (Colon cancer organoid [3]; Replication number 1) | Cell Viability (Colon cancer organoid [3]; Replication number 2)
1 | CN(C)C/C=C/C(=O)Nc1cc2c(Nc3ccc(F)c(Cl)c3)ncnc2cc1O[C@H]1CCOC1.O=C(O)/C=C\C(=O)O.O=C(O)/C=C\C(=O)O [AFATINIB DIMALEATE] | 4.81% and 9.6592% | 4.363% and 10.2005% | 8.847% and 13.6138% | 6.151% and 10.3121% | 61.0357% and 82.5087% | 65.3803% and 88.665%
2 | COc1ccc2c(c1)O[C@H](c1ccc(OC)c(OC)c1)C[C@@H]2NC(=O)C1(c2ccc3c(c2)OC(F)(F)O3)CC1 [A-1596584] | 59.7741% and 88.9069% | 99.5304% and 111.725% | 121.374% and 104.664% | 90.4474% and 94.7661% | 106.5% and 117.861% | 103.505% and 102.481%
3 | Nc1ncnc2c1ccn2[C@@H]1O[C@H]([C@H](O)c2ccccc2)[C@@H](O)[C@H]1O | 27.0632% and 78.2819% | – | 67.0274% and 58.6553% | 77.7398% and 60.4371% | 74.1764% and 78.772% | 70.798% and 78.401%
4 | CNCCN1CCC(c2cc(CN(C)C(=O)c3cccc(Oc4ccccc4)c3)ccn2)CC1 | 160.666% and 144% | 179.321% and 118.056% | 65.766% and 84.3895% | 110.837% and 98.923% | 118.858% and 106.989% | 108.266% and 112.768%
5 | COc1nc2ccc([C@@](O)(c3ccccc3)C3CCN(C(C)=O)CC3)cc2c(Cl)c1Cc1ccc(-n2cccn2)cc1 [JNJ-54119936] | 95.4238% and 127.913% | 99.5018% and 98.8422% | 195.654% and 100.967% | 202.641% and 113.341% | 91.3508% and 107.676% | 118.142% and 99.7424%
6 | CN1CCN(c2ccc(-c3cccc(CN4CCOCC4)c3)cc2NC(=O)c2c[nH]c(=O)cc2C(F)(F)F)CC1 | 183.315% and 145.933% | 137.387% and 99.6548% | 103.563% and 97.1406% | 155.063% and 99.7783% | 76.0385% and 85.8263% | 102.756% and 104.714%
7 | COc1ccccc1C(=O)Nc1cc2c(cc1N1CCNCC1C)n(C)c(=O)n2C (configuration not stated) | 207.592% and 157.772% | 161.771% and 130.961% | 86.1318% and 106.414% | 94.809% and 101.774% | 113.606% and 138.145% | 93.8896% and 107.936%
8 | CN(C)C(=O)/C(C#N)=C/c1ccc(-c2nc3cnc4c(ccn4C)c3n2C2CCCCC2)o1 | 94.8079% and 114.901% | 118.022% and 96.0735% | 117.89% and 123.735% | 132.247% and 113.588% | 100.887% and 101.443% | 86.9771% and 102.576%
9 | C[C@H](c1ccc(F)cc1)N(Cc1cccc(C(=O)O)c1)C(=O)c1cnc2ccccc2c1 [PF-05105679] | 106.225% and 110.304% | 129.169% and 147.587% | 96.3652% and 120.892% | 63.8781% and 75.356% | 102.98% and 107.115% | 83.9126% and 93.8775%
10 | CNC(=O)c1cc(C(=O)NC2CC2)cn(Cc2ccccc2)c1=O [GSK620] | 87.0029% and 102.753% | 87.2683% and 118.693% | 52.8448% and 80.6552% | 55.7609% and 83.862% | 98.0477% and 88.9414% | 114.221% and 102.991%
11 | O=C1NC(c2ccccn2)Sc2ccccc21 (configuration not stated) [BTZO-4] | 80.1051% and 90.1639% | 101.963% and 109.92% | 89.6903% and 76.6923% | 179.626% and 125.593% | 96.9189% and 94.3079% | 102.382% and 84.6939%
12 | Cc1cc(-n2nc(Cc3cc(F)cc(C(F)(F)F)c3)nc2C)ccc1C(N)=O [TP-024] | 119.634% and 111.944% | 93.5275% and 86.4673% | 194.223% and 140.244% | 90.9356% and 75.9401% | 86.6903% and 89.6507% | 83.205% and 88.2653%
13 | CCc1cc2cc(NS(=O)(=O)c3ccc(C#N)cc3)ccc2n(CC)c1=O | 145.787% and 148.591% | 141.244% and 141.715% | 136.869% and 118.47% | 168.563% and 119.449% | 101.899% and 123.449% | 90.9641% and 104.714%
